US20080146662A1, “Methods and compositions for treatment of cancer pain” (priority 2002, published 2008)

Legend:
Type in all cases: in vivo
[1] = system: rat model of bone cancer pain (MRMT-1 rat mammary gland carcinoma cells); assay: Weight-bearing difference in rat model of bone cancer pain (intra-tibial MRMT-1 cells); conditions: for weight-bearing difference between contralateral and ipsilateral paw: vs vehicle
Protocol: Adult female rats are given intra-tibial injections of MRMT-1 rat mammary gland carcinoma cells (3 μl, 10^7 cells/ml). These animals gradually develop mechanical hyperalgesia, mechanical allodynia (skin sensitivity to non-noxious stimuli) and hind limb sparing, beginning on day 12-14 following cell injection. COX-2 inhibitors, 5-methyl-2-(2′-chloro-6′-fluoroanilino)-phenylacetic acid (hereinafter referred to as COX189) (10 and 30 mg/kg p.o.) and valdecoxib (30 mg/kg p.o.) are administered as described below and the results obtained compared with vehicle treated controls.
Intra-tibial inoculation of MRMT-1 cells induces a time-dependent hypersensitivity in the ipsilateral limb, measured as a shift in body weight to the contralateral limb. The increase in weight-bearing difference between contralateral and ipsilateral paw (weight shift from the affected to the unaffected limb) is evident by day 14 post-inoculation and continues to increase until day 20.

[2] = system: rat model of bone cancer pain (MRMT-1 rat mammary gland carcinoma cells); assay: Mechanical allodynia (static and dynamic) in rat model of bone cancer pain; conditions: day 20; for static allodynia (punctuate stimulus), ipsilateral paw: 90 minutes after the last administration
Protocol: Adult female rats are given intra-tibial injections of MRMT-1 rat mammary gland carcinoma cells (3 μl, 10^7 cells/ml). These animals gradually develop mechanical hyperalgesia, mechanical allodynia (skin sensitivity to non-noxious stimuli) and hind limb sparing, beginning on day 12-14 following cell injection.

COX-1 = target: T1, COX-1 (Rattus norvegicus, UniProt Q63921); assay: Thromboxane B2 levels in samples from treated animals (COX-1 inhibition)
T1 construct: The levels of thromboxane B2 in the samples from COX189-treated animals; from tissue; host or cells: samples from treated rats
T1 sequence (Q63921 27-602): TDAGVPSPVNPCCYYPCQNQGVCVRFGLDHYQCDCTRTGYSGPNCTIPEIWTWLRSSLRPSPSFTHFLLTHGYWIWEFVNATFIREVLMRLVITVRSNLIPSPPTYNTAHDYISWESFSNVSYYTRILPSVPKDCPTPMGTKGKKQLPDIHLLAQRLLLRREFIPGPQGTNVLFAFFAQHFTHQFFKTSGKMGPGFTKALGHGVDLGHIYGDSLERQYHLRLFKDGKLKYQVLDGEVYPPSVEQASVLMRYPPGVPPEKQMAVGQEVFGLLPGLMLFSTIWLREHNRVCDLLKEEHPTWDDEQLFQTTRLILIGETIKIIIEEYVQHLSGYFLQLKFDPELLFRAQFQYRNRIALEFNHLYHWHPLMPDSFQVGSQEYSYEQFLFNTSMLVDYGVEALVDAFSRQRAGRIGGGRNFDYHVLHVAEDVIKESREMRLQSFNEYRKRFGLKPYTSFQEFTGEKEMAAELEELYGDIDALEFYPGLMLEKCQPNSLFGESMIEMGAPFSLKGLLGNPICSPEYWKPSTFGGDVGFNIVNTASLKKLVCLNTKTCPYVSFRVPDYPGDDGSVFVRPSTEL

[3] = system: rat model of bone cancer pain (MRMT-1 rat mammary gland carcinoma cells); assay: Radiologically observed structural changes and bone mineral density in rat model of bone cancer pain; conditions: for radiologically observed structural changes / loss of bone mineral density compared to vehicle treated animals: day 20
Protocol: Adult female rats are given intra-tibial injections of MRMT-1 rat mammary gland carcinoma cells (3 μl, 10^7 cells/ml).

SMILES	weight-bearing difference between contralateral and ipsilateral paw ([1]; 10 mg/kg p.o. repeated from day 10 post-inoculation, days 14, 17 and 20, measured 1 hour after drug administration)	weight-bearing difference between contralateral and ipsilateral paw ([1]; 30 mg/kg p.o. repeated from day 10 post-inoculation, days 14, 17 and 20, measured 1 hour after drug administration)	dose dependence of the effect on weight-bearing difference ([1]; 10 versus 30 mg/kg p.o.)	dynamic allodynia (light stroking of the skin), ipsilateral paw ([2]; 10 mg/kg p.o. repeated)	static allodynia (punctuate stimulus), ipsilateral paw ([2]; 10 mg/kg p.o. repeated)	dynamic allodynia (light stroking of the skin), ipsilateral paw ([2]; 30 mg/kg p.o. repeated)	static allodynia (punctuate stimulus), ipsilateral paw ([2]; 30 mg/kg p.o. repeated)	thromboxane B2 level, % of the levels in the vehicle-control animals (COX-1; 10 mg/kg)	thromboxane B2 level, % of the levels in the vehicle-control animals (COX-1; 30 mg/kg)	radiologically observed structural changes ([3]; 10 mg/kg repeated)	loss of bone mineral density compared to vehicle treated animals ([3]; 30 mg/kg repeated)	radiologically observed structural changes ([3]; 30 mg/kg repeated)	radiologically observed structural changes in an animal model of bone cancer pain ([3]; general statement, no dose given)	weight-bearing difference between contralateral and ipsilateral paw ([1]; 30 mg/kg p.o. repeated, day 20)
Cc1ccc(Nc2c(F)cccc2Cl)c(CC(=O)O)c1 [COX189, 5-methyl-2-(2′-chloro-6′-fluoroanilino)-phenylacetic acid]	significantly attenuates	significantly attenuates	not dose-dependent	tendency to reduce	significantly reverses	reaches statistical significance	significantly reverses	87.4±17.7%	64.5±8.0%	significantly inhibits	significantly inhibit	significantly inhibits	inhibit the radiologically observed structural changes	–
Cc1onc(-c2ccccc2)c1-c1ccc(S(N)(=O)=O)cc1 [valdecoxib, reference compound]	–	–	–	–	–	tendency to reduce	significantly reverses	–	77.4±27.8%	–	no significant effect	no significant effect	–	significant
